Source: patent US20040248887A1, “Inhibitors of cathepsin S” (IRM LLC, priority 2003, published 2004)
pKi: −log10 of the molar value.

target: Cathepsin S (Homo sapiens, UniProt P25774); assay: Cathepsin S inhibition, fluorogenic peptide substrate kinetic assay; type: biochemical; conditions: Table II; Cathepsin S inhibition constant, pH5.5; read-out: Ki Cat. S
Outline: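 Reactions were started with 50 μM (final) acetyl-His-Pro-Val-Lys-aminocarbamoylcoumarin, and hydrolysis was followed by fluorescence (ex 380/em 450 nm). Apparent inhibition constants from enzyme progress curves were converted to Ki for competitive inhibitors using substrate concentration and Km.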

Chain of Cathepsin S (P25774 115-331, species assumed): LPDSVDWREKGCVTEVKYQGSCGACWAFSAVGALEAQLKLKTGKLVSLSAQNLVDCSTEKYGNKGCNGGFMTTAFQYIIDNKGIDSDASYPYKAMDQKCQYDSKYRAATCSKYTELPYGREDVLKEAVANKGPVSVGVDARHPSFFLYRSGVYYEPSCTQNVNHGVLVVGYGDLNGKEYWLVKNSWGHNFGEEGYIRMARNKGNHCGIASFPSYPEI

Compound	pKi
Cc1cc(NC[C@H](C)NC(=O)[C@H](CC2CCCCC2)NC(=O)c2ccc(-c3cccc(F)c3)o2)no1 [Compound 133, 5-(3-Fluoro-phenyl)-furan-2-carboxylic acid {2-cyclohexyl-1-(S)-[1-(S)-methyl-2-(5-methyl-isoxazol-3-ylamino)-ethylcarbamoyl]-ethyl}-amide]	> 6.00
C[C@@H](CNc1ccc(OC(F)(F)F)cc1)NC(=O)[C@H](CC1CCCCC1)NC(=O)c1nnc(-c2cccc(F)c2)o1 [Compound 147, 5-(3-Fluoro-phenyl)-[1,3,4]oxadiazole-2-carboxylic acid {2-cyclohexyl-1-(S)-[1-(S)-methyl-2-(4-trifluoromethoxy-phenylamino)-ethylcarbamoyl]-ethyl}-amide]	> 7.00
O=C(N[C@@H](CC1CCCCC1)C(=O)N[C@@H](COCc1ccccc1)CN1CCc2cc(F)ccc21)OCc1ccccc1 [Compound 169]	> 7.00
O=C(N[C@@H](CC1CCCCC1)C(=O)NCCN1CCc2cc(F)ccc21)c1ccc(-c2ccccc2)s1 [Compound 82, 5-Phenyl-thiophene-2-carboxylic acid (S)-{2-cyclohexyl-1-[2-(5-fluoro-2,3-dihydro-indol-1-yl)-ethylcarbamoyl]-ethyl}-amide]	> 7.00
C[C@@H](CNc1ccc(C(=O)N(C)C)cc1)NC(=O)[C@H](CC1CCCCC1)NC(=O)c1ccc(-c2cccc(F)c2)o1 [Compound 122, 5-(3-Fluoro-phenyl)-furan-2-carboxylic acid {2-cyclohexyl-1-(S)-[2-(4-dimethylcarbamoyl-phenylamino)-1-(S)-methyl-ethylcarbamoyl]-ethyl}-amide]	> 7.00
C[C@@H](CNc1ccc(OC(F)(F)F)cc1)NC(=O)[C@H](CC1CCCCC1)NC(=O)c1cc(-c2cccc(F)c2)no1 [Compound 145, 3-(3-Fluoro-phenyl)-isoxazole-5-carboxylic acid {2-cyclohexyl-1-(S)-[1-(S)-methyl-2-(4-trifluoromethoxy-phenylamino)-ethylcarbamoyl]-ethyl}-amide]	> 6.00
COc1c(C)cc(NC[C@H](C)NC(=O)[C@H](CC2CCCCC2)NC(=O)c2ccc(-c3cccc(F)c3)o2)cc1C [Compound 115, 5-(3-Fluoro-phenyl)-furan-2-carboxylic acid {2-cyclohexyl-1-(S)-[2-(4-methoxy-3,5-dimethyl-phenylamino)-1-(S)-methyl-ethylcarbamoyl]-ethyl}-amide]	> 7.00
O=C(NCCN1CCc2cc(F)ccc21)[C@H](CC1CCCCC1)NS(=O)(=O)c1cccc2ccccc12 [Compound 228, (S)-3-Cyclohexyl-N-[2-(5-fluoro-2,3-dihydro-indol-1-yl)-ethyl]-2-(naphthalene-1-sulfonylamino)-propionamide]	> 6.00
C[C@@H](CNc1cccc(C#N)c1)NC(=O)[C@H](CC1CCCCC1)NC(=O)c1ccc(-c2cccc(F)c2)o1 [Compound 100, 5-(3-Fluoro-phenyl)-furan-2-carboxylic acid {1-(S)-[2-(3-cyano-phenylamino)-1-(S)-methyl-ethylcarbamoyl]-2-cyclohexyl-ethyl}-amide]	> 7.00
(S)-{2-Cyclohexyl-1-[2-(5-fluoro-2,3-dihydro-indol-1-yl)-ethylcarbamoyl]-ethyl}-carbamic acid benzyl ester [Compound 220]	> 6.00
C[C@@H](CNc1ccc(OC(F)F)cc1)NC(=O)[C@H](CC(C)(C)C)NC(=O)c1ccc(-c2cccc(F)c2)o1 [Compound 128, 5-(3-Fluoro-phenyl)-furan-2-carboxylic acid {1-(S)-[2-(4-difluoromethoxy-phenylamino)-1-(S)-methyl-ethylcarbamoyl]-3,3-dimethyl-butyl}-amide]	> 7.00
C[C@@H](CNc1ccc2c(c1)C(=O)OC2)NC(=O)[C@H](CC1CCCCC1)NC(=O)c1ccc(-c2cccc(F)c2)o1 [Compound 137, 5-(3-Fluoro-phenyl)-furan-2-carboxylic acid {2-cyclohexyl-1-(S)-[1-(S)-methyl-2-(3-oxo-1,3-dihydro-isobenzofuran-5-ylamino)-ethylcarbamoyl]-ethyl}-amide]	> 7.00
C[C@@H](CNc1ccccc1S(C)(=O)=O)NC(=O)[C@H](CC1CCCCC1)NC(=O)c1ccc(-c2cccc(F)c2)o1 [Compound 116, 5-(3-Fluoro-phenyl)-furan-2-carboxylic acid {2-cyclohexyl-1-(S)-[2-(2-methanesulfonyl-phenylamino)-1-(S)-methyl-ethylcarbamoyl]-ethyl}-amide]	> 7.00
COc1cccc(C(=O)N[C@@H](CCC2CCCCC2)C(=O)NCCN2CCc3cc(C#N)ccc32)c1 [Compound 12, (S)-N-{3-Cyclohexyl-1-[2-(5-cyano-2,3-dihydro-indol-1-yl)-ethylcarbamoyl]-propyl}-3-methoxy-benzamide]	> 5.00
COc1ccc(NC[C@H](C)NC(=O)[C@H](CC2CCCCC2)NC(=O)c2ccc(-c3cccc(F)c3)o2)cc1 [Compound 86, 5-(3-Fluoro-phenyl)-furan-2-carboxylic acid {2-cyclohexyl-1-(S)-[2-(4-methoxy-phenylamino)-1-(S)-methyl-ethylcarbamoyl]-ethyl}-amide]	> 7.00
CC[C@@H](C(=O)N[C@@H](CC1CCCCC1)C(=O)NCCN1CCc2cc(F)ccc21)c1ccccc1 [Compound 148, N-{2-cyclohexyl-1-(S)-[2-(5-fluoro-2,3-dihydro-indol-1-yl)-ethylcarbamoyl]-ethyl}-2-(R)-phenyl-butyramide]	> 7.00

Compound	pKi
O=C(NC(C(=O)NC(CO)CN1CCc2cc(F)ccc21)c1ccc(Cl)cc1Cl)c1ccco1 [Compound 209, N-(S)-((3-(5-fluoroindolin-1-yl)-1-hydroxypropan-2-(R)-ylcarbamoyl)(2,4-dichlorophenyl)methyl)furan-2-carboxamide]	> 7.00
O=C(N[C@@H](CC1CCCCC1)C(=O)NCCN1CCc2cc(F)ccc21)C1CCN(S(=O)(=O)c2ccccc2)CC1 [Compound 58, 1-Benzenesulfonyl-piperidine-4-carboxylic acid (S)-{2-cyclohexyl-1-[2-(5-fluoro-2,3-dihydro-indol-1-yl)-ethylcarbamoyl]-ethyl}-amide]	> 6.00
C[C@@H](CN1CC(C)(C)c2cc(F)ccc21)NC(=O)[C@H](CC1CCCCC1)NC(=O)O[C@H]1CCOC1 [Compound 217, (S,S)-{2-Cyclohexyl-1-[2-(5-fluoro-3,3-dimethyl-2,3-dihydro-indol-1-yl)-1-methyl-ethylcarbamoyl]-ethyl}-carbamic acid (S)-tetrahydro-furan-3-yl ester]	> 7.00
COc1cccc(C(=O)N[C@@H](CCC2CCCCC2)C(=O)NCCN2CCc3cc(OC)ccc32)c1 [Compound 16, (S)-N-{3-Cyclohexyl-1-[2-(5-methoxy-2,3-dihydro-indol-1-yl)-ethylcarbamoyl]-propyl}-3-methoxy-benzamide]	> 5.00
O=C(N[C@@H](CC1CCCCC1)C(=O)NCCN1CCc2cc(F)ccc21)C1CC(=O)N(Cc2cccs2)C1 (stereo partly drawn) [Compound 73, 5-Oxo-1-thiophen-2-ylmethyl-pyrrolidine-3-carboxylic acid (S)-{2-cyclohexyl-1-[2-(5-fluoro-2,3-dihydro-indol-1-yl)-ethylcarbamoyl]-ethyl}-amide]	> 7.00
COc1cccc(C(=O)N[C@@H](CC(C)(C)C)C(=O)N[C@@H](CO)CN2CCc3cc(F)ccc32)c1 [Compound 156, N-{1-(S)-[2-(5-Fluoro-2,3-dihydro-indol-1-yl)-1-(R)-hydroxymethyl-ethylcarbamoyl]-3,3-dimethyl-butyl}-3-methoxy-benzamide]	> 7.00
CC(C)(C)C[C@H](NC(=O)OCc1ccccc1)C(=O)N[C@@H](CC(=O)OC(C)(C)C)CN1CCc2cc(F)ccc21 [Compound 158, 3-(S)-(2-(S)-Benzyloxycarbonylamino-4,4-dimethyl-pentanoylamino)-4-(5-fluoro-2,3-dihydro-indol-1-yl)-butyric acid tert-butyl ester]	> 6.00
C[C@@H](CNc1ccc(OC(F)(F)F)cc1)NC(=O)[C@H](CC1CCCCC1)NS(=O)(=O)c1cccnc1 [Compound 183, (S,S)-3-Cyclohexyl-N-[1-methyl-2-(4-trifluoromethoxy-phenylamino)-ethyl]-2-(pyridine-3-sulfonylamino)-propionamide]	> 7.00
COc1ccc(-c2ccc(S(=O)(=O)N[C@@H](CC3CCCCC3)C(=O)NCCN3CCc4cc(F)ccc43)cc2)cc1 [Compound 238, (S)-3-Cyclohexyl-N-[2-(5-fluoro-2,3-dihydro-indol-1-yl)-ethyl]-2-(4′-methoxy-biphenyl-4-sulfonylamino)-propionamide]	> 7.00
C[C@@H](CN1CC(C)(C)c2cc(F)ccc21)NC(=O)[C@H](CC1CCCCC1)NC(=O)OC1CCOCC1 [Compound 215, (S,S)-{2-Cyclohexyl-1-[2-(5-fluoro-3,3-dimethyl-2,3-dihydro-indol-1-yl)-1-methyl-ethylcarbamoyl]-ethyl}-carbamic acid tetrahydro-pyran-4-yl ester]	> 7.00
Cc1cccc(C(=O)N[C@@H](CC(C)(C)C)C(=O)NCCN2CCc3cc(F)ccc32)c1 [Compound 203, N-((S)-1-(2-(5-fluoroindolin-1-yl)ethylcarbamoyl)-3,3-dimethylbutyl)-3-methylbenzamide]	> 7.00
COc1ccc(NCC(C)NC(=O)C(CCC2CCCCC2)NC(=O)c2cc3ccccc3[nH]2)cc1 (mixture of isomers) [Compound 24]	> 6.00
CS(=O)(=O)N1CCC(C(=O)N[C@@H](CC2CCCCC2)C(=O)NCCN2CCc3cc(F)ccc32)CC1 [Compound 77, 1-Methanesulfonyl-piperidine-4-carboxylic acid (S)-{2-cyclohexyl-1-[2-(5-fluoro-2,3-dihydro-indol-1-yl)-ethylcarbamoyl]-ethyl}-amide]	> 6.00
COc1ccc(NCC(C)NC(=O)C(CC2CCCCC2)NC(=O)c2cccc(OC)c2)cc1 [Compound 26, N-{2-Cyclohexyl-(1S)-[2-(4-methoxy-phenylamino)-(1R)-methyl-ethylcarbamoyl]-ethyl}-3-methoxy-benzamide]	> 7.00
(S)-3-Cyclohexyl-N-[2-(5-fluoro-2,3-dihydro-indol-1-yl)-ethyl]-2-(5-isoxazol-3-yl-thiophene-2-sulfonylamino)-propionamide [Compound 223]	> 6.00
